Patent US4447610A, “10-Substituted 5-cyanomethylene-dibenzo[A,B]-cycloheptenes, their preparations, and therapeutic agents containing these compounds” (BASF Aktiengesellschaft, priority 1980, dated 1984)

What was measured:
[1] = system: tryptamine-induced clonic front paw movements; test: Antitryptamine action: inhibition of tryptamine-induced front paw movements; assay type: in vivo, rats; conditions: for ED50: Rattus norvegicus, ip, rats, intraperitoneal, 30 min before tryptamine.HCl 16 mg/kg i.v., read-out: Antitryptamine action ED 50%; for Antitryptamine action R.A. (relative activity): clozapine = 1.00
Method: 3. Antitryptamine action Tryptamine.HCl (16 mg/kg administered intravenously) regularly causes the following symptoms in rats: clonic front paw movements, back-arching and retropulsion, as well as mandibular movements (Tedeschi et al., J. Pharmacol. Exp. Ther. 126 (1959), 223). The test substances are administered intraperitoneally 30 minutes before the tryptamine. […] The mean inhibitory dose (ED 50%) is determined, by means of Probit analysis, as the dose which prevents the symptom in half the animals.

[2] = system: orientation hypermotility; test: Sedative action: decrease in orientation hypermotility of mice; assay type: in vivo, female NMRI mice; conditions: for ED50: Mus musculus, 0.5 h, mice, oral, 30 min after administration, measured for 30 min, read-out: Sedative action ED 50%; for Sedative action R.A. (relative activity): clozapine = 1.00; for sedative-hypnotic effects (in words): compared with clozapine and perlapine
Method: 4-8 groups of 3 female NMRI mice are given the compound orally. The orientation hypermotility induced by a new environment is determined photoelectrically, 30 minutes after administration of the compound, for a period of 30 minutes.
The ED50% is the dose which produces a decrease in orientation hypermotility by 50%, compared to control animals treated with placebo.

death from physostigmine = test: Anticholinergic action: protection against death from physostigmine (antiphysostigmine test); assay type: in vivo, female NMRI mice; conditions: Mus musculus; mice, oral, 30 min before physostigmine 0.825 mg/kg s.c.; read-out: Anticholinergic action ED 50%
Method: 4. Anticholinergic action
Groups of 10 female NMRI mice are given physostigmine subcutaneously, at a lethal dose (0.825 mg/kg). The test substances are administered orally 30 minutes before the administration of physostigmine.
The ED 50% is determined as the dose of compound which protects 50% of the animals against death from physostigmine.

Acute toxicity = conditions: mouse, in vivo, ip; mice, intraperitoneal; read-out: Toxicity LD 50
Method: Groups of 5-10 female NMRI mice are given the compounds intraperitoneally. The LD 50 is determined as the dose after which 50% of the treated animals die.

[3] = system: tonic extensor reflex on the rabbit gastrocnemius; test: Muscle-relaxing action: tonic extensor reflex on the rabbit gastrocnemius; assay type: in vivo; conditions: for Muscle relaxation R.A. (relative activity): clozapine = 1.00; for muscle-relaxing properties (in words): rabbit, in vivo
Text: 2. Muscle-relaxing action The measurement is based on quantifying the tonic extensor reflex on the rabbit gastrocnemius (Teschendorf et al., Arch. Pharmacol. exp. Path. 266 (1970), 462). The rabbit is fixed in a special apparatus which permits bending the paw at the talocalcanean joint in a defined and reproducible manner. As a result of this bending, a tonic extensor reflex is triggered in the […]. The electrical activity of the muscle during contraction is registered and the individual pulses are counted. The extension (duration 5 s) is repeated at intervals of one minute. After a constant number of pulses has been reached (constituting the control value), the test substance is administered intravenously. The number of pulses after administration is related to the previous value. For each dose investigated, 4-6 animals are used. The ED 50% is the dose which reduces the muscle activity to half, based on the initial value.

SMILES | ED50 [1] [mg/kg] | Antitryptamine action R.A. (relative activity) [1] | ED50 [2] [mg/kg] | Sedative action R.A. (relative activity) [2] | ED50 (death from physostigmine) [mg/kg] | LD50 (Acute toxicity) [mg/kg] | Muscle relaxation R.A. (relative activity) [3] | sedative-hypnotic effects (in words) [2] | muscle-relaxing properties (in words) [3] | antimonaminergic action, tryptamine antagonism (in words) ([1]; compared with reference substances)
C[N+]1([O-])CCN(C2=Cc3ccccc3C(=CC#N)c3ccccc32)CC1 (mixture of isomers) [Example 12, cis,trans-5-Cyanomethylene-10-(4-methyl-4-oxy-piperazin-1-yl)-dibenzo[a,d]-cycloheptene.21/2 H2 O] | 12.5 | 0.40 | 1.4 | 3.39 | > 21.5 | > 100 | 0.46 |  |  | 
N#CC=C1c2ccccc2C=C(N2CCN(CCO)CC2)c2ccccc21 (mixture of isomers) [Example 7, cis,trans-5-Cyanomethylene-10-(N-β-hydroxyethyl-piperazin-1-yl)-dibenzo[a,d]-cycloheptene.1/2 H2 O] |  |  | 0.97 | 4.89 | > 21.5 | > 100 | 3.54 |  |  | 
CN1CCN(C2=Nc3cc(Cl)ccc3Nc3ccccc32)CC1 [Clozapine, reference compound] | 5 | 1.00 |  | 1.00 | 14.1 |  |  |  |  | 
CCN1CCN(C2=Cc3ccccc3/C(=C/C#N)c3ccccc32)CC1 [Example 5a, cis-5-cyanomethylene-10-(4-ethyl-piperazin-1-yl)-dibenzo[a,d]-cycloheptene] | 11.2 | 0.45 | 1 | 4.74 | > 21.5 | > 100 | 4.60 |  |  | 
CCN1CCN(C2=Cc3ccccc3C(=CC#N)c3ccccc32)CC1 (mixture of isomers) [Example 5, cis,trans-5-Cyanomethylene-10-(4-ethyl-piperazin-1-yl)-dibenzo[a,d]-cycloheptene] | 18.6 | 0.27 | 1.38 | 3.43 | > 21.5 | 287 | 3.54 |  |  | 
CN1CCN(C2=Cc3ccccc3/C(=C/C#N)c3ccccc32)CC1 [Example 1a] | 8.6 | 0.58 | 0.8 | 5.92 | > 10 |  | 54.12 | particularly pronounced | particularly pronounced | 
CN1CCN(C2=Cc3cc(Cl)ccc3C(=CC#N)c3ccccc32)CC1 [Example 4, cis- and trans-2-Chloro-5-cyanomethylene-10-(4-methylpiperazin-1-yl)-dibenzo[a,d]-cycloheptene] |  |  | 2 | 2.37 | > 21.5 |  | 10.00 |  |  | 
CN1CCN(C2=Cc3cc(Cl)ccc3/C(=C/C#N)c3ccccc32)CC1 [Example 4a, cis-5-cyanomethylene-2-chloro-10-(4-methyl-piperazin-1-yl)-dibenzo[a,d]-cycloheptene] | 0.7 | 7.14 | 0.44 | 10.77 | > 21.5 |  | 10.00 | particularly pronounced | particularly pronounced | markedly more pronounced
CN1CCN(C2=Cc3ccccc3C(=CC#N)c3ccccc32)CC1 [Example 1, cis- and trans-5-Cyanomethylene-10-(4-methyl-piperazin-1-yl)-dibenzo[a,d]-cycloheptene] |  |  | 0.96 | 4.94 | > 10 | 324 | 7.19 |  |  | 
CN1CCN(C2=Nc3ccccc3Cc3ccccc32)CC1 [Perlapine, reference compound] | 4.1 | 1.22 |  |  | > 21.5 |  |  |  |  | 
